Laboratory results reported in ChEMBL document CHEMBL5331104, “Discovery of BRD4-HDAC Dual Inhibitors with Improved Fungal Selectivity and Potent Synergistic Antifungal Activity against Fluconazole-Resistant Candida albicans” (J Med Chem, 2023).
≈ marks a conversion by molar mass, not a printed value. Calls of active or inactive are those of the source. No cut-off for these calls is given here.

Columns and labels:
[Candida] auris = Antifungal activity against Candida auris 0030 assessed as microbial growth inhibition; format: functional; conditions: Candidozyma auris
Nakaseomyces glabratus = test: Antifungal activity against Candida glabrata 4408 assessed as microbial growth inhibition; format: functional
Candida albicans [1] = test: Downregulation of MDR1 expression in Candida albicans 0304103 at 32 ug/mL incubated for 24 hrs by RT q-PCR analysis; format: functional; conditions: dose 32.0 µg/ml
Candida albicans [2] = test: Antifungal activity against Candida albicans 0304103 assessed as reduction in yeast to hypha transition at 32 ug/mL incubated for 2 hrs by inverse fluorescence microscopy; format: functional, organism-based; conditions: dose 32.0 µg/ml
Candida albicans [3] = test: Synergetic antifungal activity against Candida albicans 0304103 assessed as microbial growth inhibition incubated for 24 hrs in the presence of (S)-N-Hydroxy-4-(2-(1-methyl-6-(p-toly1)-4H-benzo[f](1,2,4)-triazolo-(4,3-a][1,4]diazepin-4-yl)acetamido)benzamide by checkerboard microdilution method; format: functional
Candida albicans [4] = test: Antifungal activity against Candida albicans SC5314 assessed as fungal growth inhibition incubated for 24 hrs by broth dilution method; format: functional
Candida albicans [5] = test: Downregulation of CDR2 expression in Candida albicans 0304103 at 32 ug/mL incubated for 24 hrs by RT q-PCR analysis; format: functional; conditions: dose 32.0 µg/ml
Candida albicans [6] = test: Synergetic antifungal activity against Candida albicans 0304103 assessed as microbial growth inhibition incubated for 24 hrs in the presence of (+)-JQ1 by checkerboard microdilution method; format: functional
Candida albicans [7] = test: Antibiofilm activity against FLC-resistant Candida albicans 0304103 assessed as reduction in fungal growth at 32 ug/mL and measured for 48 hrs by time-growth curve assay; format: functional, organism-based; conditions: dose 32.0 µg/ml
Candida albicans [8] = test: Synergetic antifungal activity against Candida albicans 0304103 assessed as microbial growth inhibition incubated for 24 hrs in the presence of (S,E)-3-(4-(2-(8-Chloro-6-(2-chlorophenyl)-1-methyl-4H-benzo-[f][1,2,4]triazolo[4,3-a](1,4)diazepin-4-yl)acetamido)pheny1)-N-hydroxy-acrylamide by checkerboard microdilution method; format: functional
Candida albicans [9] = test: Synergetic antifungal activity against Candida albicans 0304103 assessed as microbial growth inhibition incubated for 24 hrs in the presence of (S)-2-(6-(4-Chlorophenyl)-1-methyl-7,8,9,10-tetrahydro-4H-benzo-(4,5)thieno[3,2-f][1,2,4]triazolo(4,3-a)(1,4)diazepin-4-yl)-N-(4-(2-(hydroxyamino)-2-oxoethyl)phenyl)acetamide by checkerboard microdilution method; format: functional
Candida albicans [10] = test: Synergetic antifungal activity against Candida albicans 9172 assessed as microbial growth inhibition incubated for 24 hrs in the presence of (S)-4-((2-(6-(4-Chlorophenyl)-1-methyl-7,8,9,10-tetrahydro-4H-benzo-(4,5)thieno[3,2-f][1,2,4]triazolo(4,3-a)(1,4)diazepin-4-yl)-acetamido)-methyl)-N-hydroxybenzamide by checkerboard microdilution method; format: functional

OC(Cn1cncn1)(Cn1cncn1)c1ccc(F)cc1F [FLUCONAZOLE]
MIC80 ([Candida] auris): > 64 µg/mL | MIC80 (Nakaseomyces glabratus): 64 µg/mL (≈ 209 µM) | Activity (Candida albicans [1]): inactive | Activity (Candida albicans [2]): inactive | MIC80 (Candida albicans [3]): 1 µg/mL | MIC80 (Candida albicans [4]): 0.5 µg/mL (≈ 1.63 µM) | Activity (Candida albicans [5]): inactive | MIC80 (Candida albicans [6]): > 64 µg/mL | Activity (Candida albicans [7]): inactive | MIC80 (Candida albicans [8]): 0.5 µg/mL | MIC80 (Candida albicans [9]): 0.5 µg/mL | MIC80 (Candida albicans [10]): 0.5 µg/mL
